# Source: article PMC6240685, “Strong Inhibitory Effect, Low Cytotoxicity and High Plasma Stability of Steroidal Inhibitors of N-Methyl-D-Aspartate Receptors With C-3 Amide Structural Motif” (Frontiers in Pharmacology, 2018)
# System: HepG2 cells
# Experiment: Hepatotoxicity, XTT viability after 72 h
# Type: cell-based
# Conditions: Homo sapiens; 72 h, HepG2, 5.5 mM glucose; read-out: Hepatotoxicity IC50, 5.5 mM glucose
# Experimental: Then, the cell viability (XTT assay) and reactive oxygen species (ROS) induction were evaluated.
# (A) Hepatotoxicity provoked by compound 4 was assessed after 72 h incubation of HepG2 cells in low glucose medium (5 mM) in the presence of compound 4 (0.25–100 μM). (B) Mitochondrial toxicity was determined after 24 h incubation of HepG2 cells in either high glucose medium (25 mM) or galactose medium (10 mM) in the presence of compound 4 (2.5–150 μM). Cell viabilities were recorded in triplicates in three independent experiments and expressed as percentage of vehicle control ± SD and IC50 values were determined by GraphPad Prism software using following equation: Y = Bottom + (Top–Bottom)/(1 + 10ˆ((LogIC50-X)^∗HillSlope)), where IC50 is the concentration of compound 4 that inhibits cell viability half way between Bottom and Top plateaus, X is compound 4 concentration and HillSlope describes the steepness of the family of curves. […] (C) Concentration-dependent effect on ROS level. HepG2 cells were treated with compound 4 (0.25–100 μM) for 72 h, and then the intracellular level of total ROS in relative fluorescence units (RFU) was detected. The data are presented as the mean ± SD for at least three independent experiments and each experiment was carried out in triplicate. Final concentration of DMSO in samples was 1%. […] Single asterisks (^∗) indicate a significant difference (P < 0.05) compared to 1% DMSO control (one-way ANOVA with Dunnett’s post-test).
# HepG2 cells (ATCC®, United Kingdom) were grown in complete Minimal Essential Medium (EMEM) (5.5 mM glucose) medium, supplemented with 10% (v/v) fetal calf serum, 200 μg/mL of streptomycin, 200 U/mL of penicillin G and 4 mM glutamine. They were cultured under a humidified atmosphere containing 5% CO2 at 37°C.
# The cytotoxicity of the tested compounds was assessed with use of XTT cell proliferation kit II (Roche Diagnostics GmbH, Mannheim, Germany) according to the manufacturer’s instructions. Briefly HepG2 cells were seeded in a 96-well plate at a density of 22,000 cells per well. After 24 h, the tested neurosteroids in a concentration range from 0.5 to 200 μM were added to the culture media and incubated for 72 h before the XTT dye was added. Mitochondrial toxicity was assessed in HepG2 cells using glucose and galactose conditioned media and XTT assay as a read out for cell viability. In brief, cells were seeded onto 96 well, clear bottom tissue culture plates at a density of 22,000 cells/well and left overnight to attach. Six hours prior to the neurosteroids treatment the media was replaced with 100 μL DMEM media containing either glucose (25 mM glucose; 1 mM pyruvate; 2 mM glutamine, 10% FBS) or galactose (10 mM galactose, 1 mM pyruvate, 6 mM glutamine, 10% FBS). After that, the tested neurosteroids in a concentration range from 0.5 to 200 μM were added in the fresh appropriate assay medium (glucose or galactose) and incubated for 24 h before the XTT dye was added. The XTT absorbance was recorded at 495 nm after 1 h incubation with the dye. Compounds were dissolved in DMSO to produce the stock solutions at the concentration of 10 mM, with exception of PAG, 1, 6 (5 mM), and 11 (2.5 mM). Results were expressed as percentages of change in viability compared to appropriate DMSO control. IC50 values were determined by GraphPad Prism version 5.00 for Windows (GraphPad Software, La Jolla, CA, United States). All experiments were done in triplicates in three independent experiments to check the reproducibility.
structure (smiles),measurement,value
"C[C@@]12CCC[C@H]1[C@@H]1CC[C@@H]3C[C@H](NC(=O)[C@@H](N)CC(=O)O)CC[C@]3(C)[C@H]1CC2 [Compound 6, (S)-3-amino-4-(((3R,5R,8S,9S,10S,13S,14S)-10,13-dimethylhexadecahydro-1H-cyclopenta[a]phenanthren-3-yl)amino)-4-oxobutanoic acid]",IC50,> 200 µM
